Laboratory results: patent publication US12173018B2, “Penicillin-binding protein inhibitors” (priority 2018, dated 2024)
Values after ≈ are worked out from the molar mass of the structure shown. Like-named read-outs stand apart in the source and are kept apart here.

Tests used:
[1] = system: K. pneumoniae 848844; assay: microbe, parasite or virus in culture; format: cell-based, Klebsiella pneumoniae; settings: Klebsiella pneumoniae; K. pneumoniae 848844 producing SHV-11 and KPC-2; read-out: MIC K. pneumoniae 848844
Outline: (§1)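 CLSI broth microdilution in cation-supplemented Mueller-Hinton broth; 2-fold compound dilutions inoculated at 5×10^5 CFU/mL from a 3-5 h log-phase culture. Plates incubated 16-20 hours at 37° C; MIC read visually as lowest concentration with no growth.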

[2] = system: E. coli AG100; assay: Broth microdilution MIC, E. coli AG100 (wild-type parent); format: cell-based; settings: Escherichia coli; wild-type parent E. coli AG100, broth microdilution; read-out: MIC E. coli AG100
Outline: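 Broth microdilution in cation-supplemented Mueller-Hinton broth, 2-fold serial compound dilutions, inoculum 5×10^5 CFU/mL from 3-5 h log culture.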

[3] = target: E. coli PBP3 (Escherichia coli (strain K12), UniProt P0AD68); assay: E. coli PBP3 Bocillin-FL fluorescence polarization competition binding assay
Outline: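 This was a fluorescence polarization competition with fluorescent penicillin Bocillin-FL (0.1 μM final), read at 490/520 nm for 60 min immediately after its addition. The buffer was Hepes pH 8.0 with 300 mM NaCl and 5% glycerol, containing 1.5 μM PBP and test inhibitor up to 1000 μM. Potency is expressed as EC50 for reducing probe binding.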

[4] = system: N. gonorrhoeae FA19; assay: Liquid broth MIC, N. gonorrhoeae FA19; format: cell-based; settings: Neisseria gonorrhoeae; N. gonorrhoeae FA19, liquid broth; read-out: Minimum Inhibitory Concentration, N. gonorrhoeae FA19
Method: (§2) Additional antibacterial testing of the series was performed in wild-type reference strains of N. gonorrhoeae (ATCC 49226, FA1090, WHO F and FA19). Liquid broth-based assays were used for antibacterial testing of PBP inhibitors in Neisseria gonorrhoeae. Briefly, cryo-preserved bacterial cultures of clinical strains are streaked for isolation on GC Base agar (BD #228950 at 36 g/L autoclaved at 121° C. for 20 minutes to sterilize) with 1% Kellogg's supplement (40 g glucose, 0.5 g glutamine, 0.05 g ferric nitrate and 2 mg cocarboxylase per 100 mL deionized water filter sterilized through 0.2 μm syringe filters). Following incubation at 36° C. and 5% CO2 to allow growth of colonies, strains are aseptically sub-cultured from original agar plate onto 3 agar plates per strain 24 hours before inoculum preparation. 2-fold serial dilutions of test compounds are conducted in a 96 well plate with a final volume of 150 μL per well at 4/3-fold the final desired concentration. For preparation of assay inoculum, a direct suspension is prepared by aseptically swabbing all colonies from sub-cultured agar plates into culture tubes containing 2 mL of fresh GC broth with […]. After the dilution plates are set up, direct suspensions are then diluted in a cuvette containing GC broth (15 g proteose peptone 43, 1 g corn starch, 4 g dipotassium phosphate, 1 g monopotassium phosphate and 5 g sodium chloride per liter of deionized water are mixed on a stir plate for 20 minutes, pH adjusted to 7.2+/−0.2 pH units with 1 N HCl, centrifuged at 10,000×g for 20 minutes to pellet undissolved corn starch and then autoclaved at 121° C. for 20 minutes to sterilize) and the optical density is measured at 600 nm. Inocula are diluted such that 50 μL of this culture in […] results in a starting bacterial concentration of 5×10^5 CFU/mL when added to the dilution plates. The plates are incubated 40-42 hours at 36° C. and 5% CO2. The MIC is read visually as the lowest concentration well with no bacterial growth.

[5] = system: N. gonorrhoeae WHO F; assay: Liquid broth MIC, N. gonorrhoeae WHO F; format: cell-based; settings: Neisseria gonorrhoeae; N. gonorrhoeae WHO F, liquid broth; read-out: Minimum Inhibitory Concentration, N. gonorrhoeae WHO F
Method: as §2

[6] = system: E. coli 901C; assay: microbe, parasite or virus in culture; format: cell-based; settings: Escherichia coli; hyper-permeable E. coli 901C, broth microdilution; read-out: MIC E. coli 901C
Outline: as §1

[7] = system: E. coli AG100A; assay: microbe, parasite or virus in culture; format: cell-based; settings: Escherichia coli, read-out: MIC E. coli AG100A
Outline: as §1

[8] = system: K. pneumoniae SI-117; assay: microbe, parasite or virus in culture; format: cell-based; settings: Klebsiella pneumoniae, SI117, read-out: MIC K. pneumoniae SI-117
Outline: as §1

[9] = system: E. coli D22; assay: microbe, parasite or virus in culture; format: cell-based; settings: Escherichia coli; hyper-permeable E. coli D22, broth microdilution; read-out: MIC E. coli D22
Outline: as §1

[10] = system: K. pneumoniae UMM; assay: microbe, parasite or virus in culture; format: cell-based; settings: Klebsiella pneumoniae; K. pneumoniae UMM producing SHV-5 and KPC-2; read-out: MIC K. pneumoniae UMM
Outline: as §1

[11] = system: E. coli ATCC 25922; assay: Broth microdilution MIC, E. coli ATCC 25922; format: cell-based; settings: Escherichia coli
Outline: as §1

[12] = system: N. gonorrhoeae FA1090; assay: Liquid broth MIC, N. gonorrhoeae FA1090; format: cell-based; settings: Neisseria gonorrhoeae; N. gonorrhoeae FA1090, liquid broth; read-out: Minimum Inhibitory Concentration, N. gonorrhoeae FA1090
Method: as §2

[13] = system: N. gonorrhoeae ATCC 49226; assay: Liquid broth MIC, N. gonorrhoeae ATCC 49226; format: cell-based; settings: Neisseria gonorrhoeae, ATCC49226; N. gonorrhoeae ATCC 49226, liquid broth; read-out: Minimum Inhibitory Concentration, N. gonorrhoeae ATCC 49226
Method: as §2

[14] = ATCC25922, E. coli ATCC 25922, broth microdilution, read-out: MIC E. coli 25922
[15] = fluorescence polarization competition binding with Bocillin-FL, read-out: E. coli K12 PBP3 Potency

Chain of E. coli PBP3 (P0AD68 whole entry): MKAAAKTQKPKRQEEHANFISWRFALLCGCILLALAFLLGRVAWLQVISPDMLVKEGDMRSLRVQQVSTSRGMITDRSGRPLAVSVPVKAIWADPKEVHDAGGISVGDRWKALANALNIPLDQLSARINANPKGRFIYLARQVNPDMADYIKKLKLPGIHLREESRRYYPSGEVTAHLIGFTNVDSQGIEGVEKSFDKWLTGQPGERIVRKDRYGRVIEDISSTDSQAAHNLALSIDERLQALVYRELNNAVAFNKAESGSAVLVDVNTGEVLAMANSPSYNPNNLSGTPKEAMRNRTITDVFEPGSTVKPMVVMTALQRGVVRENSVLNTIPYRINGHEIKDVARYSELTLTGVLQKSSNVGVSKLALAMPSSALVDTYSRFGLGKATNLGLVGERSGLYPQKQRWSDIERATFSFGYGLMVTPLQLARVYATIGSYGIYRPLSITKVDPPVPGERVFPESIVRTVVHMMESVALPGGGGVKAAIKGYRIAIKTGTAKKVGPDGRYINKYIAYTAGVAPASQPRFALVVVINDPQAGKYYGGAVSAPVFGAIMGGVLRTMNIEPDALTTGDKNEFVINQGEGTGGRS

SMILES | MIC [1] [µg/mL] | MIC [2] [µg/mL] | EC50 [3] [µM] | MIC [4] [µg/mL] | MIC [5] [µg/mL] | MIC [6] [µg/mL] | MIC [7] [µg/mL] | MIC [8] [µg/mL] | MIC [9] [µg/mL] | MIC [10] [µg/mL] | MIC [11, 14] [µg/mL] | MIC [12] [µg/mL] | MIC [13] [µg/mL] | EC50 [3, 15] [µM] | MIC ([11]; ATCC25922, read-out: MIC E. coli 25922) [µg/mL]
CCN1CCN(C(=O)N[C@H](C(=O)N[C@H]2Cc3ccc(F)c(C(=O)O)c3OB2O)c2ccc(O)c(F)c2)C(=O)C1=O [Example 160, (R)-3-((S)-2-(4-ethyl-2,3-dioxopiperazine-1-carboxamido)-2-(3-fluoro-4-hydroxyphenyl)acetamido)-7-fluoro-2-hydroxy-3,4-dihydro-2H-benzo[e][1,2]oxaborinine-8-carboxylic acid] | > 128 | > 128 | 30 to 500 | 16 to 32 (≈ 28.6 to 57.1 µM) | 0.25 to 0.5 (≈ 0.446 to 0.892 µM) | 2 to 4 | > 128 | > 128 | 32 to 64 | > 128 | > 128 | 0.25 to 0.5 (≈ 0.446 to 0.892 µM) | 16 to 32 (≈ 28.6 to 57.1 µM) | – | –
O=C(O)c1cccc2c1OB(O)[C@@H](NC(=O)C(NC(=O)N1CCN(CCF)C(=O)C1=O)c1ncc(O)cc1F)C2 (stereo partly drawn) [Example 179, (3R)-3-(2-(3-fluoro-5-hydroxypyridin-2-yl)-2-(4-(2-fluoroethyl)-2,3-dioxopiperazine-1-carboxamido)acetamido)-2-hydroxy-3,4-dihydro-2H-benzo[e][1,2]oxaborinine-8-carboxylic acid] | 32 to 64 | 8 to 16 | – | 4 to 8 (≈ 7.13 to 14.3 µM) | < 0.125 | < 0.25 | 0.5 to 1 | 8 to 16 | 0.5 to 1 | 2 to 4 | 8 to 16 | < 0.125 | 0.25 to 0.5 (≈ 0.445 to 0.891 µM) | < 30 | –
CCN1CCN(C(=O)NC(C(=O)N[C@H]2Cc3cccc(C(=O)O)c3OB2O)c2ccc(C(N)=O)cc2)C(=O)C1=O (stereo partly drawn) [Example 186, (3R)-3-(2-(4-carbamoylphenyl)-2-(4-ethyl-2,3-dioxopiperazine-1-carboxamido)acetamido)-2-hydroxy-3,4-dihydro-2H-benzo[e][1,2]oxaborinine-8-carboxylic acid] | > 128 | 8 to 16 | 30 to 500 | 1 to 2 (≈ 1.81 to 3.63 µM) | < 0.125 | < 0.25 | 2 to 4 | > 128 | 0.5 to 1 | 32 to 64 | 32 to 64 | < 0.125 | 1 to 2 (≈ 1.81 to 3.63 µM) | – | –
NC(=O)c1ccc(C(NC(=O)N2CCN(CCF)C(=O)C2=O)C(=O)N[C@H]2Cc3cccc(C(=O)O)c3OB2O)cc1 (stereo partly drawn) [Example 187, (3R)-3-(2-(4-carbamoylphenyl)-2-(4-(2-fluoroethyl)-2,3-dioxopiperazine-1-carboxamido)acetamido)-2-hydroxy-3,4-dihydro-2H-benzo[e][1,2]oxaborinine-8-carboxylic acid] | > 128 | 8 to 16 | 30 to 500 | 0.25 to 0.5 (≈ 0.439 to 0.878 µM) | < 0.125 | < 0.25 | 2 to 4 | > 128 | 0.5 to 1 | 32 to 64 | 32 to 64 | < 0.125 | 0.25 to 0.5 (≈ 0.439 to 0.878 µM) | – | –
CCN1C[C@H](C)N(C(=O)NC(C(=O)N[C@H]2Cc3cccc(C(=O)O)c3OB2O)c2ncc(O)cc2F)C(=O)C1=O (stereo partly drawn) [Example 192, (3R)-3-(2-((S)-4-ethyl-6-methyl-2,3-dioxopiperazine-1-carboxamido)-2-(3-fluoro-5-hydroxypyridin-2-yl)acetamido)-2-hydroxy-3,4-dihydro-2H-benzo[e][1,2]oxaborinine-8-carboxylic acid] | 32 to 64 | 8 to 16 | – | 1 to 2 (≈ 1.79 to 3.59 µM) | < 0.125 | < 0.25 | 0.5 to 1 | 32 to 64 | 0.5 to 1 | 8 to 16 | 2 to 4 | < 0.125 | 1 to 2 (≈ 1.79 to 3.59 µM) | < 30 | –
CCN1CCN(C(=O)NC(C(=O)N[C@H]2Cc3cccc(C(=O)O)c3OB2O)c2ncc(O)cn2)C(=O)C1=O (stereo partly drawn) [Example 202, (3R)-3-(2-(4-ethyl-2,3-dioxopiperazine-1-carboxamido)-2-(5-hydroxypyrimidin-2-yl)acetamido)-2-hydroxy-3,4-dihydro-2H-benzo[e][1,2]oxaborinine-8-carboxylic acid] | > 128 | 32 to 64 | 30 to 500 | 4 to 8 (≈ 7.6 to 15.2 µM) | 0.25 to 0.5 (≈ 0.475 to 0.95 µM) | 0.5 to 1 | 2 to 4 | 32 to 64 | 8 to 16 | 32 to 64 | 32 to 64 | 0.25 to 0.5 (≈ 0.475 to 0.95 µM) | 4 to 8 (≈ 7.6 to 15.2 µM) | – | –
CCN1CCN(C(=O)NC(C(=O)N[C@H]2Cc3cccc(C(=O)O)c3OB2O)c2ncc(OC(C)=O)cc2F)C(=O)C1=O (stereo partly drawn) [Example 207, (3R)-3-(2-(5-acetoxy-3-fluoropyridin-2-yl)-2-(4-ethyl-2,3-dioxopiperazine-1-carboxamido)acetamido)-2-hydroxy-3,4-dihydro-2H-benzo[e][1,2]oxaborinine-8-carboxylic acid] | 32 to 64 | 8 to 16 | – | 1 to 2 (≈ 1.71 to 3.42 µM) | < 0.125 | < 0.25 | 0.5 to 1 | 32 to 64 | 0.5 to 1 | 8 to 16 | – | < 0.125 | 0.25 to 0.5 (≈ 0.427 to 0.854 µM) | – | 8 to 16
NS(=O)(=O)c1ccc(C(NC(=O)N2CCN(CCF)C(=O)C2=O)C(=O)N[C@H]2Cc3cccc(C(=O)O)c3OB2O)cc1F (stereo partly drawn) [Example 211, (3R)-3-(2-(3-fluoro-4-sulfamoylphenyl)-2-(4-(2-fluoroethyl)-2,3-dioxopiperazine-1-carboxamido)acetamido)-2-hydroxy-3,4-dihydro-2H-benzo[e][1,2]oxaborinine-8-carboxylic acid] | > 128 | 32 to 64 | 30 to 500 | 4 to 8 (≈ 6.42 to 12.8 µM) | 0.25 to 0.5 (≈ 0.401 to 0.802 µM) | < 0.25 | 2 to 4 | > 128 | 2 to 4 | 32 to 64 | 32 to 64 | 0.25 to 0.5 (≈ 0.401 to 0.802 µM) | 4 to 8 (≈ 6.42 to 12.8 µM) | – | –
CCN1CCN(C(=O)NC(C(=O)N[C@H]2Cc3cccc(C(=O)O)c3OB2O)c2ncc(N)cc2F)C(=O)C1=O (stereo partly drawn) [Example 214, (3R)-3-(2-(5-amino-3-fluoropyridin-2-yl)-2-(4-ethyl-2,3-dioxopiperazine-1-carboxamido)acetamido)-2-hydroxy-3,4-dihydro-2H-benzo[e][1,2]oxaborinine-8-carboxylic acid] | 32 to 64 | 32 to 64 | 30 to 500 | 4 to 8 (≈ 7.38 to 14.8 µM) | < 0.125 | 0.5 to 1 | 2 to 4 | 32 to 64 | 2 to 4 | 32 to 64 | 8 to 16 | < 0.125 | 4 to 8 (≈ 7.38 to 14.8 µM) | – | –
